#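 Protocol summary: plate cells (96-well), add compound at 5 concentrations, incubate 48 h, interpolate endpoints linearly. The concentration for full growth arrest is given as TGI.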
# What was measured:
# Assay in all cases: growth of human tumour cells (NCI), 48 h
# [1] = test system: OVCAR-5 ovarian
# [2] = test system: NCI/ADR-RES ovarian
# [3] = test system: SNB-75 CNS
# [4] = test system: MDA-MB-231 breast
# [5] = test system: CCRF-CEM leukemia
# [6] = test system: A549 NSCLC
# [7] = test system: COLO 205 colon
# [8] = test system: SK-OV-3 ovarian
# [9] = test system: OVCAR-8 ovarian
# [10] = test system: HL-60(TB) leukemia
SMILES,TGI [1] [µM],TGI [2] [µM],TGI [3] [µM],TGI [4] [µM],TGI [5] [µM],TGI [6] [µM],TGI [7] [µM],TGI [8] [µM],TGI [9] [µM],TGI [10] [µM]
C/C=C\C(CC(=O)NCC(=O)c1c[nH]c2ccccc12)CC(=O)OC (configuration not stated),> 100,> 100,> 100,> 100,96.5,> 100,> 100,> 100,> 100,
CN1CCN(/C(N)=C(\C#N)C(=O)Nc2ccc(Cl)cc2)CC1,> 100,> 100,> 100,,> 100,> 100,35.2,> 100,> 100,
O=C(Cn1c2ccc(Br)cc2c2nc3ccccc3nc21)NNC(=S)NC1CCCCC1,38.9,34.5,47.5,31.6,18.8,22.4,26,70.8,27.8,
O=C1CCSCCC(=O)Nc2ccccc2N1,> 100,> 100,,> 100,> 100,> 100,> 100,> 100,> 100,> 100
CC(=O)OCC1OC(n2c(C)c(N=Nc3ccc(Cl)cc3)c(C)c(C#N)c2=S)C(OC(C)=O)C(OC(C)=O)C1OC(C)=O (configuration not stated),> 100,> 100,49.1,> 100,> 100,> 100,> 100,> 100,,> 100
Cc1cc(C)nc(NC(P(=O)(O)O)P(=O)(O)O)n1,> 100,> 100,,> 100,,> 100,> 100,> 100,> 100,
O=C1C(Br)=CC2(C=C1Br)CCNC1=C2C(=O)c2ncccc2C1=O,3.09,6.17,2.9,3.67,6.82,3.32,3.6,5.8,4.5,8.26
NC1(CCNC(=O)c2ccccc2)CCN(C(=O)c2ccccc2)CC1,> 100,> 100,> 100,,> 100,> 100,> 100,> 100,> 100,
Cn1nnnc1SC(F)(F)c1nc2ccccc2o1,> 100,> 100,> 100,> 100,> 100,> 100,> 100,> 100,> 100,
COc1cc(Nc2nc3cc(C(F)(F)F)ccc3nc2C(=O)O)cc(OC)c1OC,> 100,> 100,> 100,70.3,90.8,> 100,> 100,,> 100,> 100
O=C1c2c(Br)sc(Br)c2C(=O)C1(O)O,50.3,> 100,> 100,,85,> 100,50.7,> 100,> 100,> 100
c1ccc2c3[nH]c(c2c1)=Nc1ccc(cc1)-c1nc2ccc(cc2o1)N=c1[nH]c(c2ccccc12)=Nc1ccc2nc(oc2c1)-c1ccc(cc1)N=3,> 100,> 100,> 100,> 100,26.7,> 100,67.8,> 100,> 100,12.4
CC(=O)Nc1c(C(=N)C#N)ncn1CCO,> 100,> 100,> 100,> 100,> 100,> 100,> 100,> 100,> 100,
CCOc1cc(NC(C)=O)ccc1C(=O)NNS(=O)(=O)c1ccc(NC(C)=O)cc1,> 100,> 100,> 100,,> 100,> 100,76.2,> 100,> 100,78.8
CC1CC(Nc2ccc(Br)cc2)N(C(=O)c2ccc(Br)cc2)O1 (configuration not stated),> 10,> 10,> 10,> 10,> 10,> 10,> 10,> 10,> 10,> 10
CCCCC1Cc2cc(O)ccc2-c2nc3cc(O)ccc3n21 (configuration not stated) (tested in a mixture with another compound),34.8,49.4,,31.3,51.8,38.6,29.7,40.4,68.8,41.9
N/C(=N\S(=O)(=O)c1ccc(-c2ncccc2C(F)(F)F)s1)Nc1ccc(Cl)cc1,44,41.1,40,27.2,,36.7,> 100,33.7,29.7,46.4
CC(NC(=O)c1c(O)[nH]c(=S)[nH]c1=O)c1ccc([N+](=O)[O-])cc1 (configuration not stated),> 100,,73.3,> 100,> 100,> 100,> 100,> 100,,> 100
CC1(C)OP(=O)(O)C=C1Sc1ccc([N+](=O)[O-])cc1[N+](=O)[O-],> 100,> 100,> 100,,,> 100,> 100,> 100,> 100,> 100
CCOC(=O)CCC1(CCC(=O)OCC)CCCCCCCCC(CCC(=O)OCC)(CCC(=O)OCC)C(=O)C1=O,> 100,> 100,> 100,,,> 100,> 100,> 100,> 100,
C=C1CCCCCCCCC/C=C/1SCCCSC,> 100,> 100,,> 100,,> 100,> 100,> 100,> 100,> 100
O=C1C=C(Nc2ccc(S(=O)(=O)Nc3nccs3)cc2)c2ccccc2C1=O,43.9,95.3,66.8,71.3,48.1,> 100,,> 100,47.6,59.8
